Experimental data as given in ChEMBL document CHEMBL5046251, “Discovery of a Series of Pyrimidine Carboxamides as Inhibitors of Vanin-1” (J Med Chem, 2022).
pIC50, pKd: −log10 of the molar value.

What was measured:
Pantetheinase [1] = molecular target: T1, Pantetheinase (Homo sapiens, UniProt O95497); test: Inhibition of recombinant N-terminal FLAG/His6-tagged human vanin-1 expressed in CHO cells using Pantetheine-7-amino-4-trifluoromethykournarin as substrate preincubated for 30 mins followed by substrate addition and measured after 60 mins
T1 sequence (O95497 whole entry): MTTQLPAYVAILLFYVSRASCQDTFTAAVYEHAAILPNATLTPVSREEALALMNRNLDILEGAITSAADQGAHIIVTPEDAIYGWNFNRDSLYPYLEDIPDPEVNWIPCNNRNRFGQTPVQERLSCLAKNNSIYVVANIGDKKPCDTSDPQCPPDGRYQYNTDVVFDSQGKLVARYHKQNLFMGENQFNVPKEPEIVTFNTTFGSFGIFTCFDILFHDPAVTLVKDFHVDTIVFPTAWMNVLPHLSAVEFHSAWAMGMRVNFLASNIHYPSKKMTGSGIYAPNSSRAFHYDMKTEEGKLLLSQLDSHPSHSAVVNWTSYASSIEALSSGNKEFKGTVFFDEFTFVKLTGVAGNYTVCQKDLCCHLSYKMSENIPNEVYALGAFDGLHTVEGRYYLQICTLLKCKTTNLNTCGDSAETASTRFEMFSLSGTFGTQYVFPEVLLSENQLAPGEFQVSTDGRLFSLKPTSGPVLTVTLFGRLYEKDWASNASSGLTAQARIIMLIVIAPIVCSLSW

[2] = Intrinsic clearance in human liver microsomes; type: ADME, Microsome
[3] = Apparent permeability across apical to basolateral side in RRCK cells; conditions: dog, MDCK
[4] = Lipophilicity, log D of the compound in Octanol/buffer by shake-flask method
Biotinidase = molecular target: T2, Biotinidase (Homo sapiens, UniProt P43251); test: Inhibition of N-terminal FLAG/His6-tagged human biotinidase expressed in COS cells using biotinyl-7-amino-4-trifluoromethylcoumarin as substrate preincubated for 10 mins followed by substrate addition and measured after 90 mins; type: cell-based
T2 sequence (P43251 whole entry): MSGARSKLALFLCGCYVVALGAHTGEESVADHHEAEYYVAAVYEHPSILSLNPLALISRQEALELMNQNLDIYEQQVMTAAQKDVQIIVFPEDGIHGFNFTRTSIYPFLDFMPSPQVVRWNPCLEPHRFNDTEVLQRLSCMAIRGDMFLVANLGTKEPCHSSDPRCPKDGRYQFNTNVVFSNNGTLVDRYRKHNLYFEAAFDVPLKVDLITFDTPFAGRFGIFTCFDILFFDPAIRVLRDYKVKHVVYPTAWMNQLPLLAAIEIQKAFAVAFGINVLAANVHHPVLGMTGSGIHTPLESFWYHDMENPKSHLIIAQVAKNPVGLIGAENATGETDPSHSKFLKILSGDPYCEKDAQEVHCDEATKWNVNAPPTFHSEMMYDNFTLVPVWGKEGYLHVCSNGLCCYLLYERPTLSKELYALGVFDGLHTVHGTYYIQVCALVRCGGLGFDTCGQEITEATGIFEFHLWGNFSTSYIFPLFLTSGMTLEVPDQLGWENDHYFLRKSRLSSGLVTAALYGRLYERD

[5] = molecular target: T3, Pantetheinase (Homo sapiens) (UniProt O95497); test: Binding affinity to recombinant N-terminal FLAG/His6-tagged human vanin-1 expressed in CHO cells assessed as binding constant (Kon) by surface plasmon resonance analysis
T3 sequence (whole entry): T1 sequence (O95497 whole entry)

Pantetheinase [6] = molecular target: T1, Pantetheinase; test: Binding affinity to recombinant N-terminal FLAG/His6-tagged human vanin-1 expressed in CHO cells assessed as dissociation constant by surface plasmon resonance analysis
[7] = molecular target: T3, Pantetheinase (Homo sapiens); test: Binding affinity to recombinant N-terminal FLAG/His6-tagged human vanin-1 expressed in CHO cells assessed as binding constant (Koff) by surface plasmon resonance analysis
[8] = molecular target: T3, Pantetheinase (Homo sapiens); test: Binding affinity to recombinant N-terminal FLAG/His6-tagged human vanin-1 expressed in CHO cells assessed as dissociative half life by surface plasmon resonance analysis
Pantetheinase [9] = molecular target: T1, Pantetheinase; test: Inhibition of recombinant N-terminal FLAG/His6-tagged human vanin-1 expressed in CHO cells at 10 uM by 1H NMR analysis; type: cell-based

| Structure (SMILES) | pIC50 (Pantetheinase [1]) | Intrinsic clearance [2] [µL/min/mg] | Papp A→B [3] [nm/s] | logD [4] | pIC50 (Biotinidase) | K [5] | pKd (Pantetheinase [6]) | K [7] [s⁻¹] | T1/2 [8] [s] | pIC50 (Pantetheinase [9]) |
| --- | --- | --- | --- | --- | --- | --- | --- | --- | --- | --- |
| N#Cc1cccc(C(=O)c2cnc(NCc3cccnc3)nc2)c1 | 8.36 | 38 | 280 | 2 |  |  |  |  |  |  |
| N#Cc1cccc(C(=O)c2cnc(NCc3cncnc3)nc2)c1 | 7.48 | 16 | 230 | 1.2 |  |  |  |  |  |  |
| C[C@@H](Nc1ncc(C(=O)N2CCC3(CCOCC3)C2)cn1)c1cnccn1 |  | < 8 | 110 | 1 | < 4.30 |  |  |  |  |  |
| CS(=O)(=O)[C@@H]1CCCN(C(=O)c2cnc(NC3(c4cncnc4)CC3)nc2)C1 | 7.97 | < 8 | 6 | -1 | 4.21 |  |  |  |  |  |
| O=C(c1cnc(NC2(c3cncnc3)COC2)nc1)N1CCC2(CCOCC2)C1 |  | < 8 | < 2 | -3 | 5.89 |  |  |  |  |  |
| O=C(c1cnc(NCc2cccnc2)nc1)c1cccs1 |  | 14.5 | 240 | 2.2 |  |  |  |  |  |  |
| CC(C)(Nc1ncc(C(=O)N2CCC3(CCOCC3)C2)cn1)c1cnccn1 | 10.22 | 18 | 170 | 0.6 | 5.44 |  |  |  |  |  |
| C[C@@H](Nc1ncc(C(=O)N2CCC3(CCOCC3)C2)cn1)c1cncnc1 |  | < 8 | 60 | 0.2 | < 4.30 |  |  |  |  |  |
| O=C(c1cnc(NCc2cccnc2)nc1)N1CCC2(CCOCC2)C1 |  | < 8 | 60 | 0.7 | 4.95 |  |  |  |  |  |
| O=C(c1cnc(NC2(c3cncnc3)CCC2)nc1)N1CCC2(CCOCC2)C1 |  | 32 | 80 | 2 |  |  |  |  |  |  |
| O=C(c1cnc(NCc2cncnc2)nc1)N1CCC2(CCOCC2)C1 |  | 12 | 30 | 0 | 4.96 |  |  |  |  |  |
| Cc1cccc(C(=O)c2cnc(NCc3cccnc3)nc2)c1 | 7.28 | 51 | 170 | 2.9 |  |  |  |  |  |  |
| N#Cc1cccc(C(=O)c2cnc(NCc3ccccc3)nc2)c1 |  | 48 | 190 | 3 |  |  |  |  |  |  |
| O=C(c1cnc(NC2(c3cnccn3)CCC2)nc1)N1CC2(CCOCC2)C1 | 10.40 | 19 | 170 | 0.8 |  |  |  |  |  |  |
| N#Cc1cccc(C(=O)c2cnc(NC3(c4ccccc4)CC3)nc2)c1 |  | 26 | 230 | 3 |  |  |  |  |  |  |
| O=C(c1ccccc1)c1cnc(NCc2cccnc2)nc1 | 7.28 | 29 | 280 | 2.5 |  |  |  |  |  |  |
| O=C(c1cnc(NC2(c3cnccn3)COC2)nc1)N1CCC2(CCOCC2)C1 |  | < 8 | 20 | -2 |  |  |  |  |  |  |
| CC(C)(Nc1ncc(C(=O)N2CCC3(CCOCC3)C2)cn1)c1cncnc1 | 10.10 | 15 | 40 | 0.5 | 5.72 |  |  |  |  |  |
| CS(=O)(=O)C1CCCN(C(=O)c2cnc(NC3(c4cncnc4)CC3)nc2)C1 (racemic) | 6.69 | < 8 | 9 | -0.8 | < 4.89 | 4.1 10^5/M/s | 7.43 | 0.0088 | 79 | 6.91 |
| N#CC1CCCN(C(=O)c2cnc(NC3(c4cncnc4)CC3)nc2)C1 (racemic) | 7.98 | < 11 | 15 | -0.3 | 4.28 | 6 10^6/M/s | 8.14 | 0.026 | 26 | 7.35 |
| CS(=O)(=O)[C@H]1CCCN(C(=O)c2cnc(NC3(c4cncnc4)CC3)nc2)C1 | 5.96 | < 8 | 6 | -1 |  |  |  |  |  |  |
| O=C(c1cnc(NCc2cnccn2)nc1)N1CC2(CCOCC2)C1 |  | < 8 | 90 | 0 | 5.13 |  |  |  |  |  |
| C[C@H](Nc1ncc(C(=O)N2CCC3(CCOCC3)C2)cn1)c1cncnc1 |  | < 8 | 70 | 2 |  |  |  |  |  |  |
| O=C(c1cnc(NC2(c3cnccn3)CCC2)nc1)N1CCC2(CCOCC2)C1 | 10.40 | 14 | 120 | 1 | 5.05 |  |  |  |  |  |
| O=C(c1cnc(NC2(c3cncnc3)CC2)nc1)N1CCC2(CCOCC2)C1 |  | < 10 | 20 | 0 | 5.99 |  |  |  |  |  |
| N#C[C@H]1CCCN(C(=O)c2cnc(NC3(c4cncnc4)CC3)nc2)C1 | 5.92 |  |  |  |  |  |  |  |  |  |
| C[C@H](Nc1ncc(C(=O)N2CC3(CCOCC3)C2)cn1)c1cnccn1 | 9.22 | < 8 | 160 | 0.2 | 7.40 |  |  |  |  |  |
| N#C[C@@H]1CCCN(C(=O)c2cnc(NC3(c4cncnc4)CC3)nc2)C1 | 7.28 | < 8 | 17 | -0.4 | 4.90 |  |  |  |  |  |
